# Reference: patent US10047087B2, “Substituted pyrazolo[1,5-A] pyridine as tropomyosin receptor kinase (TrK) inhibitors” (Dr. Reddy's Laboratories Ltd., priority 2011, dated 2018)
# Like-named read-outs stand apart in the source and are kept apart here.
# Molecular target: T1, TrkA kinase (Homo sapiens, UniProt P04629)
# T1 construct: purchased Upstate, USA
# Assay: In vitro TrkA inhibitory activity using TR-FRET assay
# Type: biochemical
# Conditions: 5 ng TrkA, 500 μM ATP
# Experimental: Determination of In Vitro TrkA Inhibitory Activity Using TR-FRET Assay
# Compounds were screened in the TR-FRET assay with TrkA kinase. 5 ng of TrkA [Upstate, USA] kinase was used for assay. The compound was incubated with the kinase for 30 minutes at 20-35° C. After the incubation, substrate mix [40 nM Ultra light poly GT (Perkin Elmer, USA) and 500 μM ATP] was added. The above reaction was stopped by the addition of 40 mM EDTA after 30 minutes. The Eu-labelled antiphospho-tyrosine antibody [Perkin Elmer, USA] was added at 0.5 nM and the fluorescence emission at 615 nm/665 nm [excitation at 340 nm] was measured. The compounds were initially screened at 100 nM, 1 μM and 10 μM concentrations. The potent compounds with >25% inhibition at 1 μM of TrkA were taken for the full dose response studies. The final DMSO concentration in the assay was […]. For IC50 determination, ⅓^rd serial dilution was made from the 20 mM DMSO stock solution. 2 μl of these were transferred to the test wells containing 20 μl reaction mixture [Total reaction volume 22 μl]. The fluorescence was measured in Perkin Elmer Wallac 1420 Multilabel Counter Victor 3. The IC50 was determined by fitting the dose response data to a sigmoidal curve fitting equation using GraphPad Prism software version 5.
# [1] = read-out: TrkA inhibition in-vitro IC50
# [2] = both bounds given in nm, read-out: TrkA inhibitory activity in-vitro IC50
# [3] = lower bound in nm [sic], upper bound in μM, read-out: TrkA inhibitory activity in-vitro IC50
# T1 sequence (P04629 33-796): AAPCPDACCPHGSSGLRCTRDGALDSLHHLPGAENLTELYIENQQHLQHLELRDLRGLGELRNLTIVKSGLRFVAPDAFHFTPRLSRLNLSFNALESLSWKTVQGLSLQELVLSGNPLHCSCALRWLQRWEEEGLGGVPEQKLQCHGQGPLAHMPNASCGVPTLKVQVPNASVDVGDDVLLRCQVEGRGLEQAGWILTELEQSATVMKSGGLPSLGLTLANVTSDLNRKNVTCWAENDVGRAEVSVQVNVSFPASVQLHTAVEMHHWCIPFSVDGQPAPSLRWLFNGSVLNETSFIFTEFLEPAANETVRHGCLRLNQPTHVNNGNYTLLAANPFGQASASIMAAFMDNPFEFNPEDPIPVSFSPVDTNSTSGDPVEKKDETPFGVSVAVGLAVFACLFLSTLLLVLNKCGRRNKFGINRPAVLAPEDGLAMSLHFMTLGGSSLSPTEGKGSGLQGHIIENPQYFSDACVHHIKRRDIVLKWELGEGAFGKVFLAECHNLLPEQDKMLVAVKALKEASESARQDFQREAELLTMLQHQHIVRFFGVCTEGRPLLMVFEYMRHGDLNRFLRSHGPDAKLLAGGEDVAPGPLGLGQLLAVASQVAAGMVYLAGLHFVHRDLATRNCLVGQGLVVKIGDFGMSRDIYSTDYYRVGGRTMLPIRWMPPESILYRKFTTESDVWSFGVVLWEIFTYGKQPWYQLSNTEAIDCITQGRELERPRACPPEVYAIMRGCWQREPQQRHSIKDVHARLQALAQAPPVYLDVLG
IC50 [1] [µM],IC50 [2] [µM],Compound,also measured
≤ 0.05,–,"CCN(CC)S(=O)(=O)NC(=O)c1cnn2ccc(N3CCC[C@@H]3c3cc(F)ccc3OCCF)cc12 [Example 88, (R)-N-(N,N-diethylsulfamoyl)-5-(2-(5-fluoro-2-(2-fluoroethoxy)phenyl)pyrrolidin-1-yl)pyrazolo[1,5-a]pyridine-3-carboxamide]",–
≤ 0.05,–,"CCN(CC)S(=O)(=O)NC(=O)c1cnn2ccc(N3CCC[C@@H]3c3cc(F)ccc3OC)cc12 [Example 87, (R)-N-(N,N-diethylsulfamoyl)-5-(2-(5-fluoro-2-methoxyphenyl)pyrrolidin-1-yl) pyrazolo[1,5-a]pyridine-3-carboxamide]",–
≤ 0.05,–,"CN(CC1CC1)S(=O)(=O)NC(=O)c1cnn2ccc(N3CCC[C@@H]3c3cc(F)ccc3F)cc12 [Example 80, (R)-N-(N-(cyclopropylmethyl)-N-methylsulfamoyl)-5-(2-(2,5-difluorophenyl)pyrrolidin-1-yl)pyrazolo[1,5-a]pyridine-3-carboxamide]",–
–,0.1 to 0.5,"CC(C)(C)CS(=O)(=O)NC(=O)c1cnn2ccc(N3CCC[C@@H]3c3cc(F)ccc3F)cc12 [Example 37, (R)-5-(2-(2,5-difluorophenyl)pyrrolidin-1-yl)-N-(neopentylsulfonyl) pyrazolo[1,5-a]pyridine-3-carboxamide]",–
0.05 to 0.1,–,"CC(C)(C)S(=O)(=O)NC(=O)c1cnn2ccc(N3CCC[C@@H]3c3cc(F)ccc3Cl)cc12 [Example 47, (R)-N-(tert-butylsulfonyl)-5-(2-(2-chloro-5-fluorophenyl)pyrrolidin-1-yl)pyrazolo[1,5-a]pyridine-3-carboxamide]",–
–,0.1 to 0.5,"O=C(NS(=O)(=O)C1CCCCC1)c1cnn2ccc(N3CCC[C@@H]3c3cc(F)ccc3F)cc12 [Example 12, (R)-N-(cyclohexylsulfonyl)-5-(2-(2,5-difluorophenyl)pyrrolidin-1-yl)pyrazolo[1,5-a] pyridine-3-carboxamide]",–
–,0.1 to 0.5,"O=C(NS(=O)(=O)C1CCCC1)c1cnn2ccc(N3CCC[C@@H]3c3cc(F)ccc3F)cc12 [Example 13, (R)-N-(cyclopentylsulfonyl)-5-(2-(2,5-difluorophenyl)pyrrolidin-1-yl)pyrazolo[1,5-a] pyridine-3-carboxamide]",–
–,0.1 to 0.5,"O=C(NS(=O)(=O)N1CC[C@H](O)C1)c1cnn2ccc(N3CCC[C@@H]3c3cc(F)ccc3F)cc12 [Example 93, 5-((R)-2-(2,5-difluorophenyl)pyrrolidin-1-yl)-N-(((S)-3-hydroxypyrrolidin-1-yl)sulfonyl)pyrazolo[1,5-a] pyridine-3-carboxamide]",–
0.05 to 0.1,–,"CC(C)(C)S(=O)(=O)NC(=O)c1cnn2ccc(N3CCC[C@@H]3c3cncc(F)c3)cc12 [Example 44, (R)-N-(tert-butylsulfonyl)-5-(2-(5-fluoropyridin-3-yl)pyrrolidin-1-yl)pyrazolo[1,5-a] pyridine-3-carboxamide]",–
–,0.1 to 0.5,"CS(=O)(=O)NC(=O)c1cnn2ccc(N3CCC[C@@H]3c3cc(F)ccc3F)cc12 [Example 6, (R)-5-(2-(2,5-difluorophenyl)pyrrolidin-1-yl)-N-(methylsulfonyl)pyrazolo[1,5-a]pyridine-3-carboxamide]",–
0.05 to 0.1,–,"CC(C)(C)S(=O)(=O)NC(=O)c1cnn2ccc(N3CCC[C@@H]3c3cc(F)ccc3OC3CCOC3)cc12 (stereo partly drawn) [Example 60, N-(tert-butylsulfonyl)-5-((2R)-2-(5-fluoro-2-((tetrahydrofuran-3-yl)oxy)phenyl)pyrrolidin-1-yl)pyrazolo[1,5-a]pyridine-3-carboxamide]",–

# Continued, compound first:
Compound,IC50 [1] [µM],IC50 [2] [µM],also measured
"CN(C)S(=O)(=O)NC(=O)c1cnn2ccc(N3CCC[C@@H]3c3cccc(F)c3)c(F)c12 [Example 138, Sodium (R)-(N,N-dimethylsulfamoyl)(4-fluoro-5-(2-(3-fluorophenyl)pyrrolidin-1-yl)pyrazolo[1,5-a]pyridine-3-carbonyl)amide]",≤ 0.05,–,–
"CN(C)c1ccc(S(=O)(=O)NC(=O)c2cnn3ccc(N4CCC[C@@H]4c4cc(F)ccc4F)cc23)cn1 [Example 23, (R)-5-(2-(2,5-difluorophenyl)pyrrolidin-1-yl)-N-((6-(dimethylamino)pyridin-3-yl)sulfonyl)pyrazolo[1,5-a] pyridine-3-carboxamide]",–,0.1 to 0.5,–
"Cc1nc(C)c(S(=O)(=O)NC(=O)c2cnn3ccc(N4CCC[C@@H]4c4cc(F)ccc4F)cc23)s1 [Example 20, (R)-5-(2-(2,5-difluorophenyl)pyrrolidin-1-yl)-N-((2,4-dimethylthiazol-5-yl)sulfonyl) pyrazolo[1,5-a]pyridine-3-carboxamide]",–,0.1 to 0.5,–
"CC(C)(C)S(=O)(=O)NC(=O)c1cnn2ccc(N3C[C@H](F)C[C@@H]3c3cc(F)ccc3F)cc12 [Example 58, N-(tert-butylsulfonyl)-5-((2R,4R)-2-(2,5-difluorophenyl)-4-fluoropyrrolidin-1-yl) pyrazolo[1,5-a]pyridine-3-carboxamide]",–,–,IC50 [3]: 0.5 to 1 µM
"CC(C)S(=O)(=O)NC(=O)c1cnn2ccc(N3CCC[C@@H]3c3cc(F)cc(F)c3)cc12 [Example 71, (R)-5-(2-(3,5-difluorophenyl)pyrrolidin-1-yl)-N-(isopropylsulfonyl)pyrazolo[1,5-a] pyridine-3-carboxamide]",–,0.1 to 0.5,–
"Cc1ccccc1S(=O)(=O)NC(=O)c1cnn2ccc(N3CCC[C@@H]3c3cc(F)ccc3F)cc12 [Example 140, Sodium (R)-(5-(2-(2,5-difluorophenyl)pyrrolidin-1-yl)pyrazolo[1,5-a]pyridine-3-carbonyl)(o-tolylsulfonyl)amide]",≤ 0.05,–,–
"CC(C)(C)S(=O)(=O)NC(=O)c1cnn2ccc(N3CC(F)C[C@@H]3c3cc(F)ccc3F)cc12 (stereo partly drawn) [Example 135, Sodium (tert-butylsulfonyl)(5-((2R)-2-(2,5-difluorophenyl)-4-fluoropyrrolidin-1-yl)pyrazolo[1,5-a]pyridine-3-carbonyl)amide]",–,–,IC50 (read-out: TrkA inhibitory activity in-vitro IC50): 1 to 10 µM
"O=C(NS(=O)(=O)N1CCCCC1)c1cnn2ccc(N3CCC[C@@H]3c3cc(F)ccc3F)cc12 [Example 89, (R)-5-(2-(2,5-difluorophenyl)pyrrolidin-1-yl)-N-(piperidin-1-ylsulfonyl)pyrazolo[1,5-a] pyridine-3-carboxamide]",≤ 0.05,–,–
"CN(C(=O)c1cnn2ccc(N3CCC[C@@H]3c3cc(F)ccc3F)cc12)S(=O)(=O)c1cccc(C#N)c1 [Example 9, (R)-N-((3-cyanophenyl)sulfonyl)-5-(2-(2,5-difluorophenyl)pyrrolidin-1-yl)-N-methylpyrazolo[1,5-a] pyridine-3-carboxamide]",≤ 0.05,–,–
"O=C(NS(=O)(=O)c1cc(Cl)sc1Cl)c1cnn2ccc(N3CCC[C@@H]3c3cc(F)ccc3F)cc12 [Example 32, (R)-N-((2,5-dichlorothiophen-3-yl)sulfonyl)-5-(2-(2,5-difluorophenyl)pyrrolidin-1-yl) pyrazolo[1,5-a]pyridine-3-carboxamide]",–,0.1 to 0.5,–
"O=C(NS(=O)(=O)N1CCCC1)c1cnn2ccc(N3CCC[C@@H]3c3cc(F)ccc3F)cc12 [Example 85, (R)-5-(2-(2,5-difluorophenyl)pyrrolidin-1-yl)-N-(pyrrolidin-1-ylsulfonyl)pyrazolo[1,5-a]pyridine-3-carboxamide]",≤ 0.05,–,–
"O=C(NS(=O)(=O)c1ccc(N2CCOCC2)cc1)c1cnn2ccc(N3CCC[C@@H]3c3cc(F)ccc3F)cc12 [Example 29, (R)-5-(2-(2,5-difluorophenyl)pyrrolidin-1-yl)-N-((4-morpholinophenyl)sulfonyl) pyrazolo[1,5-a]pyridine-3-carboxamide]",–,0.1 to 0.5,–
"O=C(NS(=O)(=O)c1ccc(-n2cncn2)nc1)c1cnn2ccc(N3CCC[C@@H]3c3cc(F)cc(F)c3)cc12 [Example 72, (R)-N-((6-(1H-1,2,4-triazol-1-yl)pyridin-3-yl)sulfonyl)-5-(2-(3,5-difluorophenyl)pyrrolidin-1-yl)pyrazolo[1,5-a]pyridine-3-carboxamide]",–,0.1 to 0.5,–
"CCN(C)S(=O)(=O)NC(=O)c1cnn2ccc(N3CCC[C@@H]3c3cc(F)cc(F)c3OC)cc12 [Example 90, (R)-5-(2-(3,5-difluoro-2-methoxyphenyl)pyrrolidin-1-yl)-N-(N-ethyl-N-methylsulfamoyl) pyrazolo[1,5-a]pyridine-3-carboxamide]",≤ 0.05,–,–
"O=C(NS(=O)(=O)c1ccc2c(c1)OCCO2)c1cnn2ccc(N3CCC[C@@H]3c3cc(F)ccc3F)cc12 [Example 34, (R)-5-(2-(2,5-difluorophenyl)pyrrolidin-1-yl)-N-((2,3-dihydrobenzo[b][1,4]dioxin-6-yl)sulfonyl)pyrazolo [1,5-a]pyridine-3-carboxamide]",0.05 to 0.1,–,–
"CC(C)(C)S(=O)(=O)NC(=O)c1cnn2ccc(N3CCC[C@@H]3c3cc(F)ccc3F)c(F)c12 [Example 61, (R)-N-(tert-butylsulfonyl)-5-(2-(2,5-difluorophenyl)pyrrolidin-1-yl)-4-fluoro pyrazolo[1,5-a] pyridine-3-carboxamide]",–,0.1 to 0.5,–
"CC(C)(C)S(=O)(=O)NC(=O)c1cnn2ccc(N3CCC[C@@H]3c3cc(F)cc(OC4CCOC4)c3)cc12 (stereo partly drawn) [Example 68, N-(tert-butylsulfonyl)-5-((2R)-2-(3-fluoro-5-((tetrahydrofuran-3-yl)oxy)phenyl)pyrrolidin-1-yl)pyrazolo[1,5-a]pyridine-3-carboxamide]",–,–,IC50 [3]: 0.5 to 1 µM
